The results in this text go back to patent US20030206968A1, “Fungicidal mixtures” (priority 1999, published 2003).

What all share (assay type): in vivo
Assay [1] relates to Blumeria graminis. The experiment in a line: Greenhouse, Blumeria graminis on wheat, 4 days residual. To be noted: Example 30. As for the experimental part: (§1) The trials are carried out under greenhouse (Examples 1 to 32) or field conditions (Examples 33 to 40) in residual or curative applications. The fungicides are applied in single treatments, or in a combination comprising an azolopyrimidine of formula I and a compound selected from the classes (A), (B) and (C) as defined above. The compounds are applied in form of an aqueous spray mix obtained from a concentrated formulation or the technical material.
(§2) 1. Seed is planted in 6 cm diameter plastic pots and maintained in the greenhouse.
(§3) 2. When the primary leaf is fully expanded in the case of cereals or several leaves are present in the case of dicots, formulated test compounds are sprayed with a three nozzle overhead fungicide sprayer to near run-off. Alternatively, a single nozzle overhead track sprayer is used for application of the compounds to cereals at a rate of 200 l/ha. Plants are then allowed to air-dry.
(§4) 3. Inoculation precedes treatment in the case of curative evaluations and follows treatment in case of residual evaluations. For inoculation of powdery mildew disease, plants are set up on greenhouse benches with bottom watering mats and inoculated by dusting them with conidia from infected plants. Between inoculation and treatment for curative evaluations and between treatment and inoculation for residual evaluations, plants are maintained in the greenhouse with bottom watering.
(§5) 4. Disease on the foliage as percent leaf area with disease symptoms/signs is evaluated about 7 days after inoculation. In the case of wheat, the tips and bases of the leaves are excluded from the evaluation. [formula]
(§6) 1. Technical compounds are formulated in a solvent/surfactant system consisting of 5% acetone and 0.05% Tween 20 in deionized water. Compounds are dissolved in acetone prior to addition of the water; the Tween 20 can be added through either the acetone or the water. Dilutions are made using the solvent/surfactant system. Formulated compounds are prepared using deionized water.
(§7) 2. Two kinds of controls are included: Plants treated with the solvent/surfactant solution and inoculated (Solvent Blank). Untreated plants which are inoculated (Inoculated Control).
(§8) Assessments of the diseases took place at the indicated day after the application of the compounds. Per cent infected leaf area infected was evaluated. The efficacy of the compounds/compounds mixtures to control the diseases was calculated by using the formula given above under item 4: […]
(§9) Synergy was calculated using the % disease control values of specific treatments for the two COLBY formula given hereinabove
Fungicidal efficacy of the mixture of (S)-Azolopyrimidine C in admixture with Azoxystrobin or Trifloxystrobin (4 days residual) against Blumeria graminis on wheat. The tank mixes were obtained from technical material of (S)-Azolopyrimidine C and Azoxystrobin or Trifloxystrobin.

The test system of assay [2] is Blumeria graminis. The experiment in a line: Greenhouse, Blumeria graminis on wheat, 2 days curative. Particulars: Example 27. As for the experimental part: as §1, §2, §3, §4, §5, §6, §7, §8, §9
Fungicidal efficacy of the mixture of (S)-Azolopyrimidine C in admixture with Azoxystrobin or Trifloxystrobin (2 days curative) against Blumeria graminis on wheat. The tank mixes were obtained from technical material of (S)-Azolopyrimidine C and Azoxystrobin or Trifloxystrobin.

The subject of assay [3] is Blumeria graminis. The experiment in a line: Field test, Blumeria graminis on wheat. Particulars: 17 days after application. The procedure, abridged: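 Field trial on wheat: formulated products (SC/EC tank mixes, alone or in mixtures) sprayed as aqueous mix at 400 l/ha by good agricultural practice. Percent infected leaf area assessed 15 or 17 days after application; efficacy calculated as disease control, with synergy judged by the Colby formula.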

A further assay concerns Puccinia recondita. The assay is described as follows: Greenhouse, Puccinia recondita on wheat, 1 day residual. To be noted: Puccinia recondita, read-out: Observed Efficacy; for pest or weed control at 0.06 ppm: dose rate 0.06 ppm; for pest or weed control at 0.25 ppm: dose rate 0.25 ppm; for pest or weed control at 1 ppm: dose rate 1 ppm; for pest or weed control at 4 ppm: dose rate 4 ppm.
Source text: The fungicides are applied in single treatments, or in a combination comprising an azolopyrimidine of formula I and a compound selected from the classes (A), (B) and (C) as defined above. The compounds are applied in form of an aqueous spray mix obtained from a concentrated formulation or the technical material.
as §2, §3, §4
(§10) For inoculation of non-powdery mildew diseases, an aqueous spore suspension of the pathogen is applied to the plant and the plants are kept 1-2 days in a moist infection chamber before being returned to the greenhouse where they are maintained by bottom watering.
as §5, §6, §7, §8, §9
Fungicidal efficacy of the mixture of Azolopyrimidine C+metconazole (1 day residual) against Puccinia recondita on wheat The tank mix was obtained from a SC formulation containing 100 g Azolopyrimidine C per liter and an EC containing 100 g metconazole per liter. […]
Fungicidal efficacy of the mixture of Azolopyrimidine C+fluazinam (1 day residual) against Puccinia recondita on wheat The tank mix was obtained from technical material of Azolopyrimidine C and a SC formulation containing 500 g fluazinam per liter. […]

The next assay deals with Septoria tritici. The experiment in a line: Greenhouse, Septoria tritici on wheat, 1 day residual. Particulars: Example 9. As for the experimental part:
as §1, §2, §3, §4, §10, §5, §6, §7, §8, §9
Fungicidal efficacy of the mixture of Azolopyrimidine C+metconazole (1 day residual) against Septoria tritici on wheat The tank mix was obtained from a SC formulation containing 100 g Azoplopyrimidine C per liter and an EC containing 100 g metconazole per liter.

Where two headings read alike, the source gives them in different places.

Regarding “5-chloro-6-(2,4,6-trifluorophenyl)-7-(1,1,1-trifluoroprop-2-ylamino)-[1,2,4]triazolo[1,5-a]pyrimidine [(S)-Azolopyrimidine C]”, the “Observed Efficacy” value in the assay with Blumeria graminis [1] (dose rate 3.1 ppm) was determined as 0%; in the assay on Blumeria graminis [1] (dose rate 6.3 ppm) it was 0%; in the assay with Blumeria graminis [1] (dose rate 12.5 ppm) it was 3%; in the assay with Blumeria graminis [1] (dose rate 25 ppm) it was 11%; with Blumeria graminis [1] (dose rate 50 ppm) it was 34%; with Blumeria graminis [2] (dose rate 1.6 ppm) it was 0%. In addition, the “Observed Efficacy” value in the assay with Blumeria graminis [2] (dose rate 3.1 ppm) came out at 0%; in the assay with Blumeria graminis [2] (dose rate 6.3 ppm), 10%; in the assay on Blumeria graminis [2] (dose rate 12.5 ppm) it was 40%; in the assay on Blumeria graminis [2] (dose rate 25 ppm), 61%; in the assay with Blumeria graminis [2] (dose rate 50 ppm), 81%; in the assay with Blumeria graminis [3] (Table XXXVI, (S)-Azolopyrimidine C 25 g/ha alone), 63. Further, the “Observed Efficacy” value amounted to 78 with Blumeria graminis [3] (Table XXXVI, (S)-Azolopyrimidine C 50 g/ha alone); 74 in the assay on Blumeria graminis [3] (Table XXXVI, (S)-Azolopyrimidine C 75 g/ha alone); 63 in the assay with Blumeria graminis [3] (Table XXXVII, (S)-Azolopyrimidine C 25 g/ha alone); 78 in the assay with Blumeria graminis [3] (Table XXXVII, (S)-Azolopyrimidine C 50 g/ha alone); 74 in the assay with Blumeria graminis [3] (Table XXXVII, (S)-Azolopyrimidine C 75 g/ha alone); 96 in the assay on Blumeria graminis [3] (Table XXXVII, (S)-Azolopyrimidine C 100 g/ha alone).

For the compound `CC(Nc1c(-c2c(F)cc(F)cc2F)c(Cl)nc2ncnn12)C(F)(F)F` (stereo not drawn) [Azolopyrimidine C, 5-chloro-6-(2,4,6-trifluorophenyl)-7-(1,1,1-trifluoroprop-2-ylamino)-[1,2,4]triazolo[1,5-a]pyrimidine], the pest or weed control at 2 ppm with Puccinia recondita (Example 11, dose rate 2 ppm) was found to be 2%. Also, the pest or weed control at 8 ppm in the assay with Puccinia recondita (Example 11, dose rate 8 ppm) amounted to 1%. Further, the pest or weed control at 10 ppm in the assay on Puccinia recondita (Example 11, dose rate 10 ppm) was 3%. In addition, the pest or weed control at 25 ppm in the assay with Puccinia recondita (Example 11, dose rate 25 ppm) came out at 5%. In the assay on Puccinia recondita (Example 11, dose rate 40 ppm), the pest or weed control at 40 ppm came out at 10%. For the same compound, the pest or weed control at 125 ppm in the assay with Puccinia recondita (Example 11, dose rate 125 ppm) was 20%. The pest or weed control at 200 ppm in the assay with Puccinia recondita (Example 11, dose rate 200 ppm) was determined as 35%. In addition, the pest or weed control at 0.06 ppm with Puccinia recondita (Example 13), in the assay on Puccinia recondita (Example 14), with Puccinia recondita (Example 15), in the assay on Puccinia recondita (Example 19) and in the assay on Puccinia recondita (Example 21) was 8% in each case. For the same compound, the pest or weed control at 0.25 ppm in the assay on Puccinia recondita (Example 13) was found to be 41%; in the assay with Puccinia recondita (Example 15) it was 49%; with Puccinia recondita (Example 19), 49%. For the same compound, the pest or weed control at 1 ppm in the assay on Puccinia recondita (Example 13), in the assay on Puccinia recondita (Example 14), in the assay on Puccinia recondita (Example 15), with Puccinia recondita (Example 19) and with Puccinia recondita (Example 22) was 71% in each case. For the same compound, the pest or weed control at 4 ppm in the assay with Puccinia recondita (Example 13), in the assay on Puccinia recondita (Example 14), in the assay on Puccinia recondita (Example 15) and with Puccinia recondita (Example 19) was 100% each time. Moreover, the pest or weed control at 0.86 ppm in the assay with Puccinia recondita (Example 20, dose rate 0.86 ppm) turned out to be 8%. The “Observed Efficacy” value worked out at 0% in the assay on Septoria tritici (dose rate 2 ppm); 0% in the assay on Septoria tritici (dose rate 5 ppm); 0% with Septoria tritici (dose rate 8 ppm); 68% in the assay with Septoria tritici (dose rate 25 ppm); 91% in the assay on Septoria tritici (dose rate 40 ppm).
